Test results: PMC12951568, “Identifying Structural Factors Governing the Photodynamic Activity of Phthalocyanines” (Journal of Medicinal Chemistry, 2026)
Values joined by “and” are separate entries in the source; they are usually repeats but may differ in a detail not shown here. Equal values may be shown once. Read-outs that look alike come from different tables or passages of the source.

What was measured:
[1] = Absorption and fluorescence emission spectra in DMF; type: physicochemical; settings: in DMF
Procedure: (§1) An absorption spectrum of 2.475 mL of solvent (water, DMF, or PBS) was taken (i.e., absorption spectrum of baseline); then, 25 μL of stock solution was added to reach the final concentration of 1 μM in the cuvette, and the absorption and emission spectra were taken. Baseline of the solvent was subtracted from the obtained absorption spectrum to get the final absorption spectrum of the sample.

[2] = Fluorescence quantum yield, comparative method; type: physicochemical; settings: in DMF; ZnPc as reference
In short: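 ΦF determined by the comparative method against ZnPc (ΦF 0.32 in THF), using integrated emission area, absorbance at the excitation wavelength and solvent refractive index. Q-band absorbance kept below 0.05; estimated error ± 15%.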

[3] = Fluorescence lifetime in DMF; type: physicochemical
Text: 1 Photophysical Data of Investigated Derivatives in DMF ^a | column: τF1/ns; τF2/ns

[4] = Quantum yield of singlet oxygen production, comparative method with DPBF scavenger; type: physicochemical; settings: in DMF, ZnPc as reference
In short: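 Dye added from 100 μM DMF stock (or DMF/water, water); irradiated under stirring with xenon lamp through water filter and OG530 cut-off (>523 nm). DPBF decay followed at 415 nm; ΦΔ from ln(A0/At) slopes versus reference, normalised to absorbed light summed over 523–850 nm; triplicate means, ±10% error.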

[5] = Log P, partition between n-octanol and PBS; type: physicochemical; settings: partition coefficient between 1-octanol and PBS
In short: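 Sample from 100 μM stock added to equal volumes of n-octanol and PBS, vortexed 5 min at rt, centrifuged. Each layer diluted into DMF and emission spectra recorded; log P taken as log of octanol/PBS integrated fluorescence ratio, mean of triplicates.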

[6] = Aggregation / monomerization in aqueous media (spectra in water and PBS); type: physicochemical; settings: 1 μM
Procedure: as §1

[7] = target: bovine serum albumin (BSA) (Bos taurus, UniProt P02769); experiment: Interaction with bovine serum albumin (absorption and emission spectra in PBS); type: binding; settings: 1 μM Pc in PBS, BSA 17.5, 35 and 100 μM
Sequence of bovine serum albumin (BSA) (P02769 25-607): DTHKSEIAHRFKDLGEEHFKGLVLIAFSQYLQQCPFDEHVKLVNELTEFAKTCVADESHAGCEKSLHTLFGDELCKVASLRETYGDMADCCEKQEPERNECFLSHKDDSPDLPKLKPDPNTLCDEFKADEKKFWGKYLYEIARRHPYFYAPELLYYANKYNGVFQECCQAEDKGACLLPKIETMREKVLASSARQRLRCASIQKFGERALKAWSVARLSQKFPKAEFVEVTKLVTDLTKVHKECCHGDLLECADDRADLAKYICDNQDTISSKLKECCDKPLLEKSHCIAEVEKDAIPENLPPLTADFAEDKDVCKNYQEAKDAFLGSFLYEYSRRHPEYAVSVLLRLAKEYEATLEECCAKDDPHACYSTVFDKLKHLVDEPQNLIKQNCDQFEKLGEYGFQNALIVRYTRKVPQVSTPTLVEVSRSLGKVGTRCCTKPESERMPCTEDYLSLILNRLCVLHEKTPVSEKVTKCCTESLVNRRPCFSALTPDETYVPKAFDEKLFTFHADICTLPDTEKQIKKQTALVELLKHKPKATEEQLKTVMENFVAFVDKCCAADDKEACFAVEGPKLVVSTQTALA

[8] = test system: HeLa (human cervical carcinoma); experiment: Photodynamic activity (phototoxicity, neutral red uptake) on HeLa; type: cell-based; settings: HeLa; unsymmetrical anionic A1Zn, A2Zn vs A3Zn, A4Zn
[9] = test system: SK-MEL-28 (human skin melanoma); experiment: Photodynamic activity (phototoxicity, neutral red uptake) on SK-MEL-28; type: cell-based; settings: 12 h incubation, Xe-lamp 15 min, λ > 570 nm, 11.2 J/cm^2; mean ± SD; t.w. = this work
[10] = test system: HeLa (human cervical carcinoma); settings: ref number not given, cited from earlier work
[11] = test system: MCF-7 (human breast adenocarcinoma); set-up: method as in number not printed in Table 2; settings: 12 h incubation, Xe-lamp 15 min, λ > 570 nm, 11.2 J/cm^2; mean ± SD; determined previously under the same conditions at the same workplace and published; ref number not given; cited from earlier work
[12] = cited from earlier work; for ΦF, fluorescence quantum yield of nonionized analogue: determined for nonionized analogues containing free carboxylic acid, ref number not given (footnote b)
[13] = cited from earlier work; for ΦΔ, quantum yield of singlet oxygen production of nonionized analogue: determined for nonionized analogues containing free carboxylic acid, ref number not given (footnote b)
[14] = test system: MCF-7 (human breast adenocarcinoma); experiment: Photodynamic activity (phototoxicity, neutral red uptake) on MCF-7; type: cell-based; settings: 12 h incubation, Xe-lamp 15 min, λ > 570 nm, 11.2 J/cm^2; mean ± SD; t.w. = this work
[15] = test system: SK-MEL-28 (human skin melanoma); set-up: method as in number not printed in Table 2; settings: 12 h incubation, Xe-lamp 15 min, λ > 570 nm, 11.2 J/cm^2; mean ± SD; determined previously under the same conditions at the same workplace and published; ref number not given; cited from earlier work
[16] = 12 h incubation, Xe-lamp 15 min, λ > 570 nm, 11.2 J/cm^2, mean ± SD, determined previously under the same conditions at the same workplace and published, read-out: EC50 (nM) HeLa

Structure (SMILES) | ε, extinction coefficient [1] | λA, absorption maximum in the Q-band [1] [nm] | λF, fluorescence emission maximum [1] [nm] | ΦF, fluorescence quantum yield [2] | ΦΔ, quantum yield of singlet oxygen production [4] | Log P [5] | aggregation / monomeric state [6] | Interaction with BSA: disaggregation/monomerization and changes in absorption and fluorescence emission spectra [7] | EC50 [10, 16] [nM] | EC50 [11] [nM] | ΦF, fluorescence quantum yield of nonionized analogue [12] | ΦΔ, quantum yield of singlet oxygen production of nonionized analogue [13] | EC50 [15] [nM] | also measured
O=C([O-])c1cc(C(=O)[O-])cc(-c2cc3c(cc2-c2cc(C(=O)[O-])cc(C(=O)[O-])c2)C2=Nc4c5ccccc5c5[n]4[Zn][n]4c(c6ccccc6c4=NC3=N2)=NC2=NC(=N5)c3ccccc32)c1.[Na+].[Na+].[Na+].[Na+] [A2Zn] | 152 090 M^–1cm^–1 | 677 | 688 | 0.02 | 0.22 | –2.42 | aggregated in water | partial | 410 ± 156 | 584 ± 88 |  |  |  | τF1, fluorescence lifetime (relative amplitude in brackets) [3]: 0.23 (16%) ns; τF2, fluorescence lifetime (relative amplitude in brackets) [3]: 2.66 (84%) ns; fold higher photodynamic activity vs symmetrical hydrophilic counterparts [8]: 25 and ~21; EC50 [9]: 700 ± 50 nM
O=C(O)c1cc(Oc2cc3c(cc2Oc2cc(C(=O)O)cc(C(=O)O)c2)C2=Nc4c5cc(Oc6cc(C(=O)O)cc(C(=O)O)c6)c(Oc6cc(C(=O)O)cc(C(=O)O)c6)cc5c5[n]4[Zn][n]4c(c6cc(Oc7cc(C(=O)O)cc(C(=O)O)c7)c(Oc7cc(C(=O)O)cc(C(=O)O)c7)cc6c4=NC4=NC(=N5)c5cc(Oc6cc(C(=O)O)cc(C(=O)O)c6)c(Oc6cc(C(=O)O)cc(C(=O)O)c6)cc54)=NC3=N2)cc(C(=O)O)c1 [A3Zn(COOH)] |  |  |  |  |  |  |  |  |  |  | 0.19 | 0.42 |  | 
O=C([O-])c1cc(Oc2cc3c(cc2Oc2cc(C(=O)[O-])cc(C(=O)[O-])c2)C2=Nc4c5cc(Oc6cc(C(=O)[O-])cc(C(=O)[O-])c6)c(Oc6cc(C(=O)[O-])cc(C(=O)[O-])c6)cc5c5[n]4[Zn][n]4c(c6cc(Oc7cc(C(=O)[O-])cc(C(=O)[O-])c7)c(Oc7cc(C(=O)[O-])cc(C(=O)[O-])c7)cc6c4=NC4=NC(=N5)c5cc(Oc6cc(C(=O)[O-])cc(C(=O)[O-])c6)c(Oc6cc(C(=O)[O-])cc(C(=O)[O-])c6)cc54)=NC3=N2)cc(C(=O)[O-])c1.[Na+].[Na+].[Na+].[Na+].[Na+].[Na+].[Na+].[Na+].[Na+].[Na+].[Na+].[Na+].[Na+].[Na+].[Na+].[Na+] [A3Zn] | 172 640 M^–1cm^–1 | 677 | 688 | 0.03 | 0.24 | –2.88 |  | slight bathochromic shift in the Q-band accompanied by partial quenching of the excited states | 5160 ± 1030 | 3470 ± 670 | 0.19 | 0.42 |  | quenching of excited states upon BSA addition (decrease in Q-band maximum and fluorescence intensity) [7]: negligible
O=C(O)c1cc(C(=O)O)cc(-c2cc3c(cc2-c2cc(C(=O)O)cc(C(=O)O)c2)C2=Nc4c5cc(-c6cc(C(=O)O)cc(C(=O)O)c6)c(-c6cc(C(=O)O)cc(C(=O)O)c6)cc5c5[n]4[Zn][n]4c(c6cc(-c7cc(C(=O)O)cc(C(=O)O)c7)c(-c7cc(C(=O)O)cc(C(=O)O)c7)cc6c4=NC4=NC(=N5)c5cc(-c6cc(C(=O)O)cc(C(=O)O)c6)c(-c6cc(C(=O)O)cc(C(=O)O)c6)cc54)=NC3=N2)c1 [A4Zn(COOH)] |  |  |  |  |  |  |  |  |  |  | 0.12 | 0.45 |  | 
O=C([O-])c1cc(C(=O)[O-])cc(-c2cc3c(cc2-c2cc(C(=O)[O-])cc(C(=O)[O-])c2)C2=Nc4c5cc(-c6cc(C(=O)[O-])cc(C(=O)[O-])c6)c(-c6cc(C(=O)[O-])cc(C(=O)[O-])c6)cc5c5[n]4[Zn][n]4c(c6cc(-c7cc(C(=O)[O-])cc(C(=O)[O-])c7)c(-c7cc(C(=O)[O-])cc(C(=O)[O-])c7)cc6c4=NC4=NC(=N5)c5cc(-c6cc(C(=O)[O-])cc(C(=O)[O-])c6)c(-c6cc(C(=O)[O-])cc(C(=O)[O-])c6)cc54)=NC3=N2)c1.[Na+].[Na+].[Na+].[Na+].[Na+].[Na+].[Na+].[Na+].[Na+].[Na+].[Na+].[Na+].[Na+].[Na+].[Na+].[Na+] [A4Zn] | 168 630 M^–1cm^–1 | 694 | 708 | 0.01 |  | –3.32 | monomeric in water | slight bathochromic shift in the Q-band accompanied by partial quenching of the excited states |  | 5090 ± 1240 | 0.12 | 0.45 (0.45) ^b |  | quenching of excited states upon BSA addition (decrease in Q-band maximum and fluorescence intensity) [7]: negligible; EC50 ([10]; same irradiation conditions, previously published per Table 2, read-out: EC50 (HeLa)): 10300 nM
CC[N+](CC)(CC)CCSc1cc2c(cc1SCC[N+](CC)(CC)CC)C1=Nc3c4cc(SCC[N+](CC)(CC)CC)c(SCC[N+](CC)(CC)CC)cc4c4[n]3[Zn][n]3c(c5cc(SCC[N+](CC)(CC)CC)c(SCC[N+](CC)(CC)CC)cc5c3=NC3=NC(=N4)c4cc(SCC[N+](CC)(CC)CC)c(SCC[N+](CC)(CC)CC)cc43)=NC2=N1.[I-].[I-].[I-].[I-].[I-].[I-].[I-].[I-] [C8Zn] | 281 600 M^–1cm^–1 | 704 | 714 | 0.29 | 0.63 | –1.59 | did not sufficiently suppress aggregation |  | 540 ± 90 |  |  |  | 320 ± 48 | EC50 [14]: 280 ± 40 nM
Cc1cc(OCc2cn(CCOCCOCCO)nn2)c(Oc2cc3c(cc2Oc2c(OCc4cn(CCOCCOCCO)nn4)cc(C)cc2OCc2cn(CCOCCOCCO)nn2)C2=Nc4c5ccccc5c5[n]4[Zn][n]4c(c6ccccc6c4=NC3=N2)=NC2=NC(=N5)c3ccccc32)c(OCc2cn(CCOCCOCCO)nn2)c1 [N3Zn] | 280 340 M^–1cm^–1 | 672 | 681 | 0.28 | 0.48 | 1.90 |  |  | 2200 ± 160 | 1500 ± 300 |  |  | 900 ± 200 | 
Cc1cc(OCc2cn(CCO[C@@H]3O[C@H](CO)[C@@H](O)[C@H](O)[C@H]3O)nn2)c(Oc2cc3c(cc2Oc2c(OCc4cn(CCO[C@@H]5O[C@H](CO)[C@@H](O)[C@H](O)[C@H]5O)nn4)cc(C)cc2OCc2cn(CCO[C@@H]4O[C@H](CO)[C@@H](O)[C@H](O)[C@H]4O)nn2)C2=Nc4c5ccccc5c5[n]4[Zn][n]4c(c6ccccc6c4=NC3=N2)=NC2=NC(=N5)c3ccccc32)c(OCc2cn(CCO[C@@H]3O[C@H](CO)[C@@H](O)[C@H](O)[C@H]3O)nn2)c1 [N4Zn] | 293 750 M^–1cm^–1 | 672 | 681 | 0.29 | 0.59 | –0.65 |  |  | 2070 ± 60 | 1200 ± 100 |  |  | 500 ± 100 | 
[Zn+2].c1ccc2c(c1)-c1nc-2nc2[n-]c(nc3nc([n-]c4nc(n1)-c1ccccc1-4)-c1ccccc1-3)c1ccccc21 [ZnPc, unsubstituted zinc(II) phthalocyanine, reference compound] |  |  |  |  |  |  |  |  |  |  |  |  |  | ΦF of the reference standard ([12]; in THF, ref number not given): 0.32; ΦΔ of the reference standard ([13]; in DMF, ref number not given): 0.56
